The test system of data set [1] is Escherichia coli. As to the kind of experiment: Antibacterial activity (MIC) against Escherichia coli as Gram-negative bacterium. In kind it is cell-based. As to conditions: for MBC: Table 1, bacteriocidal, read-out: Escherichia coli bacteriocidal action; for MIC: Table 1, bacteriostatic, read-out: Escherichia coli bacteriostatic action (MIC).
Data set [2] in a line: Acute toxicity LD50 on mouse. To be noted: in vivo.
In data set [3] the test system is Staphylococcus aureus. As to the kind of experiment: Antibacterial activity (MIC) against Staphylococcus aureus as Gram-positive bacterium. In kind it is cell-based. To be noted: for MBC: Table 1, bacteriocidal, read-out: Staphylococcus aureus bacteriocidal action; for MIC: Table 1, bacteriostatic, read-out: Staphylococcus aureus bacteriostatic action (MIC).
Data set [4] concerns Staphylococcus aureus. The data set is described as above. Format: cell-based. To be noted: Staphylococcus aureus; Table 3, class symbols; read-out: Antibacterial Activity (MIC) Staph. aureus. The method, then:
(§1) Some of the compounds of this invention were tested as to their antibacterial activity (MIC, mcg/ml) against Staph. aureus as Gram-positive bacterium and E. coli as Gram-negative bacterium. In the table, the antibacterial activity of 0.09 to 1.25 mcg/ml. is indicated as A1, and the antibacterial activity of more than 1.25 mcg/ml. and not more than 2.5 mcg/ml. is indicated as A2.

The nature of the next data set: in vivo. As to conditions: mouse.
Data set [5] has as its system Escherichia coli. Description: Antibacterial activity (MIC) against Escherichia coli as Gram-negative bacterium. As to conditions: Escherichia coli; Table 3, class symbols; read-out: Antibacterial Activity (MIC) E. coli. In kind it is cell-based. The procedure: as §1
For data set [6] the following is noted: in vivo; cited from earlier work.

In brackets after ≈: the same amount, converted by molar mass. Read-outs that look alike come from different tables or passages of the source.

Consider 14 compounds from patent publication US4060527A, “Pyrido[2,3-c]-acridine-1-hydroxy-2-carboxylic acid derivatives” (Fuji Chemical Industries, Ltd., priority 1975, dated 1977).

Broadly, the MIC is the smallest concentration in the dilution series that meets the test's criterion for growth inhibition. By LD50 is commonly meant the dose at which mortality reaches 50%. High values mean lower toxicity, low ones greater toxicity.

In the case of `Cc1c2ccccc2nc2c1ccc1ncc(C(=O)O)c(O)c12` [Compound F-636], the MBC was 2.5 µg/mL (≈ 8.22 µM) in the data set with Escherichia coli [1] and 1.25 µg/mL (≈ 4.11 µM) in the data set on Staphylococcus aureus [3]. For the same compound, the MIC in the data set on Escherichia coli [1] is 1.25 µg/mL (≈ 4.11 µM); in the data set with Staphylococcus aureus [3] it was 1.25 µg/mL (≈ 4.11 µM); in the data set on Staphylococcus aureus [4] it was 0.09 to 1.25 µg/mL (≈ 0.296 to 4.11 µM); with Escherichia coli [5], 0.09 to 1.25 µg/mL (≈ 0.296 to 4.11 µM). Moreover, the figures for the LD50 (in data set [2] (sc); in “in vivo” (iv); in the data set “in vivo” (po)) were over 3000 mg/kg, 235 mg/kg and over 5000 mg/kg, respectively.

In the case of acriflavin, the toxicity result in data set [6] is “fairly high toxicity, and exhibit high toxicity in internal administration”.

On to `CCCCc1c2ccccc2nc2c1ccc1ncc(C(=O)O)c(O)c12` [Compound F-634], for which the MBC in the data set with Escherichia coli [1] stood at 0.62 µg/mL (≈ 1.79 µM); in the data set with Staphylococcus aureus [3], 0.25 µg/mL (≈ 0.722 µM). Also, the MIC with Escherichia coli [1] was 0.62 µg/mL (≈ 1.79 µM); in the data set on Staphylococcus aureus [3] it was 0.25 µg/mL (≈ 0.722 µM); in the data set with Staphylococcus aureus [4], 0.09 to 1.25 µg/mL (≈ 0.26 to 3.61 µM); in the data set with Escherichia coli [5] it was 0.09 to 1.25 µg/mL (≈ 0.26 to 3.61 µM). Besides, the LD50 in data set [2] (sc) was over 3000 mg/kg; in the data set “in vivo” (iv), 215 mg/kg; in “in vivo” (po) it was over 5000 mg/kg.

Consider `Cc1cc2cc3ccccc3nc2c2c(O)c(C(=O)O)cnc12` [Compound F-632], for which the figures for the MBC with Escherichia coli [1] and in the data set on Staphylococcus aureus [3] were 1.25 µg/mL (≈ 4.11 µM) and 2.5 µg/mL (≈ 8.22 µM), respectively. Besides, the MIC was 0.62 µg/mL (≈ 2.04 µM) in the data set on Escherichia coli [1], 1.25 µg/mL (≈ 4.11 µM) in the data set with Staphylococcus aureus [3], 0.09 to 1.25 µg/mL (≈ 0.296 to 4.11 µM) in the data set on Staphylococcus aureus [4] and 0.09 to 1.25 µg/mL (≈ 0.296 to 4.11 µM) in the data set on Escherichia coli [5]. The LD50 in data set [2] (sc) is over 3000 mg/kg; in the data set “in vivo” (iv), 253 mg/kg; in “in vivo” (po), over 5000 mg/kg.

As for `CCc1c2ccccc2nc2c1ccc1ncc(C(=O)O)c(O)c12` [Compound F-635], the MBC in the data set with Escherichia coli [1] was 1.25 µg/mL (≈ 3.93 µM); in the data set on Staphylococcus aureus [3], 0.62 µg/mL (≈ 1.95 µM). In addition, the MIC is 1.25 µg/mL (≈ 3.93 µM) with Escherichia coli [1], 0.62 µg/mL (≈ 1.95 µM) in the data set with Staphylococcus aureus [3], 0.09 to 1.25 µg/mL (≈ 0.283 to 3.93 µM) in the data set with Staphylococcus aureus [4] and 0.09 to 1.25 µg/mL (≈ 0.283 to 3.93 µM) in the data set with Escherichia coli [5]. In addition, the LD50 in data set [2] (sc) is over 3000 mg/kg; in “in vivo” (iv) it was 186 mg/kg; in the data set “in vivo” (po), over 5000 mg/kg.

As to `Cc1ccc2nc3c(ccc4ncc(C(=O)O)c(O)c43)cc2c1` [Compound F-637], the MBC stood at 1.25 µg/mL (≈ 4.11 µM) in the data set on Escherichia coli [1] and 2.5 µg/mL (≈ 8.22 µM) with Staphylococcus aureus [3]. Besides, the MIC in the data set on Escherichia coli [1] was 0.62 µg/mL (≈ 2.04 µM); in the data set on Staphylococcus aureus [3], 1.25 µg/mL (≈ 4.11 µM); with Staphylococcus aureus [4], 0.09 to 1.25 µg/mL (≈ 0.296 to 4.11 µM); with Escherichia coli [5] it was 0.09 to 1.25 µg/mL (≈ 0.296 to 4.11 µM). Besides, the LD50 was over 3000 mg/kg in data set [2] (sc), 256 mg/kg in the data set “in vivo” (iv) and over 5000 mg/kg in “in vivo” (po).

For `O=C(O)c1cnc2ccc3cc4ccccc4nc3c2c1O` [Compound F-631], the MBC with Escherichia coli [1] and with Staphylococcus aureus [3] was 1.25 µg/mL (≈ 4.31 µM) each time. Further, the MIC with Escherichia coli [1] is 1.25 µg/mL (≈ 4.31 µM); with Staphylococcus aureus [3], 1.25 µg/mL (≈ 4.31 µM); with Staphylococcus aureus [4], 0.09 to 1.25 µg/mL (≈ 0.31 to 4.31 µM); in the data set on Escherichia coli [5], 0.09 to 1.25 µg/mL (≈ 0.31 to 4.31 µM). Moreover, the LD50 in data set [2] (sc) was over 3000 mg/kg; in “in vivo” (iv) it was 230 mg/kg; in “in vivo” (po) it was over 5000 mg/kg.

For the compound `O=C(O)c1cnc2ccc3c(-c4ccccc4Br)c4ccccc4nc3c2c1O` [Compound F-777, Pyrido[2,3-c]-acridine-1-hydroxy-7-o-bromophenyl-2-carboxylic acid], the MIC in the data set on Staphylococcus aureus [4] and in the data set on Escherichia coli [5] was 0.09 to 1.25 µg/mL (≈ 0.202 to 2.81 µM) throughout.

On to `CCNc1ccc2nc3c(ccc4ncc(C(=O)O)c(O)c43)cc2c1` [Compound F-858, Pyrido[2,3-c]-acridine-1-hydroxy-9-ethylamino-2-carboxylic acid], for which the MIC in the data set with Staphylococcus aureus [4] and in the data set on Escherichia coli [5] was 0.09 to 1.25 µg/mL (≈ 0.27 to 3.75 µM) each time.

Regarding `O=C(O)c1cnc2ccc3c(-c4ccccc4)c4ccccc4nc3c2c1O` [Compound F-633], the MBC in the data set with Escherichia coli [1] and with Staphylococcus aureus [3] was 1.25 µg/mL (≈ 3.41 µM) throughout. Besides, the MIC with Escherichia coli [1] was 1.25 µg/mL (≈ 3.41 µM); in the data set with Staphylococcus aureus [3] it was 1.25 µg/mL (≈ 3.41 µM); with Staphylococcus aureus [4], 0.09 to 1.25 µg/mL (≈ 0.246 to 3.41 µM); with Escherichia coli [5], 0.09 to 1.25 µg/mL (≈ 0.246 to 3.41 µM). The LD50 in data set [2] (sc) is over 3000 mg/kg; in “in vivo” (iv), 245 mg/kg; in the data set “in vivo” (po), over 5000 mg/kg.

For the compound `CNc1c2ccccc2nc2c1ccc1ncc(C(=O)O)c(O)c12` [Compound F-853, Pyrido[2,3-c]-acridine-1-hydroxy-7-methylamino-2-carboxylic acid], the MIC in the data set with Staphylococcus aureus [4] and with Escherichia coli [5] was 0.09 to 1.25 µg/mL (≈ 0.282 to 3.91 µM) in each case.

Take `O=C(O)c1cnc2ccc3c(I)c4ccccc4nc3c2c1O` [Compound F-845, Pyrido[2,3-c]-acridine-1-hydroxy-7-iodo-2-carboxylic acid]: the MIC with Staphylococcus aureus [4] and in the data set with Escherichia coli [5] was 0.09 to 1.25 µg/mL (≈ 0.216 to 3 µM) throughout.

`CSc1c2ccccc2nc2c1ccc1ncc(C(=O)O)c(O)c12` [Compound F-877, Pyrido[2,3-c]-acridine-1-hydroxy-7-methylmercapto-2-carboxylic acid]: the MIC in the data set with Staphylococcus aureus [4] and in the data set on Escherichia coli [5] was 0.09 to 1.25 µg/mL (≈ 0.268 to 3.72 µM) in each case.

`CCn1cc(C(=O)O)c(=O)c2ccc(C)nc21` [Nalidixic acid, reference compound]: the MBC with Escherichia coli [1] was found to be 6.25 µg/mL (≈ 26.9 µM). The MIC with Escherichia coli [1] was found to be 6.25 µg/mL (≈ 26.9 µM); in the data set with Staphylococcus aureus [3] it was 125 µg/mL (≈ 538 µM). In addition, the LD50 amounted to 176 mg/kg in data set [2] (iv), 3300 mg/kg in data set [2] (po) and 500 mg/kg in data set [2] (sc).
